Measurements as given in ChEMBL document CHEMBL1201862, “PubChem BioAssay data set” (2004).
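Values below derive from 48-hour exposures of cells grown in 96-well plates, with endpoints linearly interpolated between the two concentrations bracketing the appropriate inhibition level. GI50 is the concentration that inhibits growth by half.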 The source made the active and inactive calls. Rule as the data show it: active = GI50 up to about 1.1 µM and inactive = higher.

Assays:
Experiment in all cases: growth of human tumour cells (NCI), 48 h
[1] = test system: HL-60
[2] = test system: UO-31
[3] = test system: HCT-116
[4] = test system: SK-MEL-5
[5] = test system: HOP-92
[6] = test system: SR
[7] = test system: SF-295
[8] = test system: MCF7
[9] = test system: A549
[10] = test system: CCRF-CEM
[11] = test system: 786-0
[12] = test system: RPMI-8226
[13] = test system: HOP-62
[14] = test system: RXF 393
[15] = test system: NCI-H460
[16] = test system: IGROV-1
[17] = test system: SN12C
[18] = test system: MOLT-4
[19] = test system: OVCAR-3
[20] = test system: UACC-257

| Structure (SMILES) | GI50 [1] | GI50 [2] | GI50 [3] | GI50 [4] | GI50 [5] | GI50 [6] | GI50 [7] | GI50 [8] | GI50 [9] | GI50 [10] | GI50 [11] | GI50 [12] | GI50 [13] | GI50 [14] | GI50 [15] | GI50 [16] | GI50 [17] | GI50 [18] | GI50 [19] | GI50 [20] |
| --- | --- | --- | --- | --- | --- | --- | --- | --- | --- | --- | --- | --- | --- | --- | --- | --- | --- | --- | --- | --- |
| COc1cc2nncc(SCc3ccc(Cl)c(Cl)c3)c2cc1OC | > 50.8 µM (inactive) | > 100 µM (inactive) | > 100 µM (inactive) | > 100 µM (inactive) | > 45.8 µM (inactive) | > 100 µM (inactive) | > 69.3 µM (inactive) | 89.5 µM (inactive) | > 82.2 µM (inactive) | > 100 µM (inactive) | 42.8 µM (inactive) | > 100 µM (inactive) | 32.3 µM (inactive) | 35.3 µM (inactive) | > 72.3 µM (inactive) | 99.3 µM (inactive) | > 100 µM (inactive) | > 100 µM (inactive) | > 100 µM (inactive) | > 56.4 µM (inactive) |
| O=[N+]([O-])/C=C/c1c(Cl)cccc1Cl | 1.24 µM (inactive) | 3.76 µM (inactive) | 2.7 µM (inactive) | 3.13 µM (inactive) | 4.9 µM (inactive) | 0.933 µM (active) | 7.87 µM (inactive) | 1.64 µM (inactive) | 8.63 µM (inactive) | 1.23 µM (inactive) | 0.809 µM (active) | 0.838 µM (active) | 6.38 µM (inactive) | 10.4 µM (inactive) | 2.61 µM (inactive) | 3.65 µM (inactive) | 1.53 µM (inactive) | 1.07 µM (active) | 1.3 µM (inactive) | 3.09 µM (inactive) |
| CCOC(=O)c1cc2c(ccc3cc(C(=O)OCC)[nH]c32)[nH]1 | > 10 µM (inactive) | 48.6 µM (inactive) | 41.9 µM (inactive) | 25.8 µM (inactive) | 78.7 µM (inactive) | 17.5 µM (inactive) | 60.7 µM (inactive) | 50.2 µM (inactive) | 29.7 µM (inactive) | 27.8 µM (inactive) | 15.6 µM (inactive) | 57.1 µM (inactive) | 21.7 µM (inactive) | 15.8 µM (inactive) | 43.9 µM (inactive) | 53.7 µM (inactive) | 25.9 µM (inactive) | 35.8 µM (inactive) | 87.1 µM (inactive) | > 100 µM (inactive) |
| CCc1cc2c(c3c1CCCC3)CC1(Cc3ccc(C(=O)OC)cc3C1)C2 (stereo not given) | 20.8 µM (inactive) | > 100 µM (inactive) | 54.3 µM (inactive) | 71.8 µM (inactive) | 36.7 µM (inactive) | 28.9 µM (inactive) | > 100 µM (inactive) | > 100 µM (inactive) | > 100 µM (inactive) | 18.3 µM (inactive) | > 100 µM (inactive) | 44.6 µM (inactive) | > 100 µM (inactive) | > 100 µM (inactive) | > 100 µM (inactive) | > 100 µM (inactive) | > 100 µM (inactive) | 35.4 µM (inactive) | > 100 µM (inactive) | 53.1 µM (inactive) |
| NC(=O)N/N=C1/CCC(O)CC1CC(=O)O (stereo not given) | 2.7 µM (inactive) | > 100 µM (inactive) | > 100 µM (inactive) | > 100 µM (inactive) | > 100 µM (inactive) | 30.3 µM (inactive) | > 100 µM (inactive) | > 100 µM (inactive) | > 100 µM (inactive) | 36.3 µM (inactive) | > 100 µM (inactive) | > 100 µM (inactive) | > 100 µM (inactive) | > 100 µM (inactive) | > 100 µM (inactive) | > 100 µM (inactive) | > 100 µM (inactive) | > 100 µM (inactive) | > 100 µM (inactive) | > 100 µM (inactive) |
| Cc1ccc(C2=Nn3c(nc4sc(-c5ccccc5)cc4c3=O)SC2)cc1 | > 100 µM (inactive) | > 100 µM (inactive) | > 100 µM (inactive) | > 100 µM (inactive) | > 100 µM (inactive) | > 100 µM (inactive) | > 100 µM (inactive) | > 100 µM (inactive) | > 100 µM (inactive) | > 100 µM (inactive) | > 100 µM (inactive) | > 100 µM (inactive) | > 100 µM (inactive) | > 10 µM (inactive) | > 100 µM (inactive) | > 100 µM (inactive) | > 100 µM (inactive) | > 100 µM (inactive) | > 100 µM (inactive) | > 100 µM (inactive) |
